Measurements: paper PMC9223764, “In Vitro Selection and Characterization of HIV-1 Variants with Increased Resistance to LP-40, Enfuvirtide-Based Lipopeptide Inhibitor” (International Journal of Molecular Sciences, 2022)
Where a SMILES comes first, the peptide text is derived from it. The star is where a group is joined. Palmitoyl = CCCCCCCCCCCCCCCC(=O)*

What was measured:
Format in all cases: cell-based
[1] = test system: HIV-1 NL4-3 gp41 NDQEEDYN/L33S/V38A/N42T pseudovirus; conditions: NDQEEDYN/L33S/V38A/N42T relative to WT NL4-3; Table 3
Protocol: (§1) We selected LP-40-induced drug resistance typical point mutations and combination mutation pseudoviruses to evaluate the current representative membrane fusion inhibitors.
(§2) The infectivity of HIV Env mutants and the inhibitory activities of membrane fusion inhibitors on mutants in TZM-bl cells were measured using a single-cycle infection assay as described previously. Briefly, the HIV pseudovirus was packed using an Env-coding plasmid, and pSG3ΔEnv was co-transfected into HEK293T cells. pSG3ΔEnv encodes an Env-defective, luciferase-expressing HIV-1 genome. After the pseudoviruses were harvested and filtrated, the amount of pseudoviruses was fixed via P24 antigen, and their infectivity was determined in TZM-bl cells. In order to measure the inhibitory activities of the inhibitors, inhibitors diluted serially 3-fold were mixed with an equal volume of pseudoviruses, and then 100 µL 1 × 10^5/mL TZM-bl cells were added to the mixture and incubated at 37 °C with 5% CO2 for 48 h. After that, TZM-bl cells were lysed using reporter lysis buffer, and IC50 values were calculated according to luciferase activity measured by luciferase assay reagents and a luminescence counter (Promega, Madison, WI, USA).

[2] = test system: HIV-1 NL4-3 gp41 NDQEEDYN pseudovirus; conditions: NDQEEDYN relative to WT NL4-3; Table 3
Protocol: as §1, §2

[3] = test system: HIV-1 NL4-3 gp41 L33S/I37T pseudovirus; conditions: L33S/I37T relative to WT NL4-3; Table 3
Protocol: as §1, §2

[4] = test system: HIV-1 NL4-3 gp41 L33S/V38A/N42T pseudovirus; conditions: L33S/V38A/N42T relative to WT NL4-3; Table 3
Protocol: as §1, §2

[5] = test system: HIV-1 NL4-3 gp41 V38A/N42T pseudovirus; conditions: V38A/N42T relative to WT NL4-3; Table 3
Protocol: as §1, §2

[6] = test system: HIV-1 NL4-3 gp41 NDQEEDYN/L33S/I37T pseudovirus; conditions: NDQEEDYN/L33S/I37T relative to WT NL4-3; Table 3
Protocol: as §1, §2

[7] = test system: HIV-1 NL4-3 pseudovirus (WT); conditions: WT NL4-3 reference; Table 3
Protocol: as §2

[8] = test system: HIV-1 NL4-3 gp41 L33S pseudovirus; conditions: L33S relative to WT NL4-3; Table 3
Protocol: (§3) Viral RNA was extracted from the supernatant, and, after reverse transcription, the cDNA was amplified using PCR. These amplified DNA were connected to the T-Easy vector and transformed to Trans 2-Blue Chemically Competent Cells. These sequences were determined via sequencing. The expression plasmids, which contained different HIV-1NL4-3 Env mutants, were constructed using DNA assembly (NEBuilder® HiFi DNA Assembly Master Mix). In brief, two primers were used to amplify Env, and the other two primers were used to amplify the vector fragment. The products of PCR were purified with a 20–25 bp overlap in the terminal of Env and the vector fragment Env and the vector fragment were added to the DNA assembly master mix at […] for 15 min and then transformed to Trans 2-Blue Chemically Competent Cells. Additionally, a single-point mutation was generated using double-stranded DNA templates and a selection of mutants with a restriction enzyme (DpnI) as described previously.
as §2

[9] = test system: HIV-1 NL4-3 gp41 I69V pseudovirus; conditions: I69V relative to WT NL4-3; Table 3
Protocol: as §3, §2

[10] = test system: HIV-1 NL4-3 gp41 I37T pseudovirus; conditions: I37T relative to WT NL4-3; Table 3
Protocol: as §3, §2

SMILES: CCCCCCCCCCCCCCCC(=O)NCCCC[C@H](NC(=O)[C@H](CC(C)C)NC(=O)[C@H](CC(C)C)NC(=O)[C@H](CCC(=O)O)NC(=O)[C@H](CCC(=O)O)NC(=O)[C@@H](NC(=O)[C@H](CCCCN)NC(=O)[C@H](CCCCN)NC(=O)[C@H](CCC(=O)O)NC(=O)[C@H](CC(C)C)NC(=O)[C@H](CCC(=O)O)NC(=O)[C@H](CCC(=O)O)NC(=O)[C@@H](NC(=O)[C@H](CCCCN)NC(=O)[C@H](CCCCN)NC(=O)[C@H](CCC(=O)O)NC(=O)[C@H](Cc1c[nH]c2ccccc12)NC(=O)[C@H](CCC(=O)O)NC(=O)[C@H](CCC(=O)O)NC(=O)[C@H](Cc1c[nH]c2ccccc12)NC(=O)[C@@H](NC(=O)[C@H](CCSC)NC(=O)[C@H](CCC(=O)O)NC(C)=O)[C@@H](C)O)C(C)C)[C@@H](C)CC)C(N)=O [LP-19] (Ac-EMTWEEWEKKVEELEKKIEELLK(Palmitoyl)-NH2)
- Fold change in IC50 [1]: 1.48 fold
- Fold change in IC50 [2]: 1.68 fold
- Fold change in IC50 [3]: 1.25 fold
- Fold change in IC50 [4]: 0.56 fold
- Fold change in IC50 [5]: 0.66 fold
- Fold change in IC50 [6]: 3.04 fold
- Fold change in IC50 [7]: 1.00 fold
- Fold change in IC50 [8]: 1.61 fold
- Fold change in IC50 [9]: 1.00 fold
- Fold change in IC50 [10]: 1.62 fold
